In ChEMBL document CHEMBL3351427, “Trimeric anthracenes from the endophytic fungus Stemphylium globuliferum” (J Nat Prod, 2014):
In brackets after ≈: the same amount, converted by molar mass.

Legend:
Assay type in all cases: functional
Staphylococcus aureus = test: Antibacterial activity against Staphylococcus aureus ATCC 29213 by broth microdilution method
Escherichia coli = test: Antibacterial activity against Escherichia coli ATCC 25922 by broth microdilution method
Pseudomonas aeruginosa = test: Antibacterial activity against Pseudomonas aeruginosa B 63230 by broth microdilution method

CN(C)[C@@H]1C(O)=C(C(N)=O)C(=O)[C@@]2(O)C(O)=C3C(=O)c4c(O)cccc4[C@@](C)(O)[C@H]3C[C@@H]12 [TETRACYCLINE]
MIC (Staphylococcus aureus): 0.25 µg/mL (≈ 0.563 µM) | MIC (Escherichia coli): 0.5 µg/mL (≈ 1.13 µM) | MIC (Pseudomonas aeruginosa): 32 µg/mL (≈ 72 µM)
